Experimental findings from the supplement of paper PMC11368000 are described below.

Structures are written as SMILES.

In one experiment the test system is 1368 (donor line of iPSC-derived cardiomyocytes). Nature of the experiment: POD (EC95) for loss of peak frequency (asystole) vs vehicle; higher = less potent (higher point of departure). To be noted: exposure time: 90 min. The procedure: (§1)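 Human iPSC-derived cardiomyocytes from 16 donors were exposed for 90 min at 37 °C to each PFAS at 0.1, 1, 10 and 100 µM in 0.5% DMSO, 384-well plates. Kinetic Ca2+ flux (FLIPR) and Hoechst nuclei counts were normalised to vehicle wells and fitted with a hierarchical Bayesian Hill model to give donor-specific PODs: EC05 for beat-rate increase or decrease and for decay-to-rise ratio increase (QT proxy), EC95 for peak-frequency loss (asystole), EC10 for total cell number loss. 0.03 µM is the lower bound.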
In turn, `NC(=O)C(F)(F)C(F)(F)C(F)(F)C(F)(F)C(F)(F)C(F)(F)C(F)(F)F` [Perfluorooctanamide] had a POD vs vehicle of over 100 µM.
Turning to `N=C(N)C(F)(F)C(F)(F)C(F)(F)C(F)(F)C(F)(F)C(F)(F)C(F)(F)F` [Perfluorooctanamidine], the POD vs vehicle was over 100 µM.
Compound `O=S(=O)(O)C(F)(F)C(F)(F)C(F)(F)C(F)(F)C(F)(F)C(F)(F)C(F)(F)C(F)(F)F` [Perfluorooctanesulfonic_acid] showed a POD vs vehicle of over 100 µM.
Consider `O=C(O)C(F)(F)C(F)(F)C(F)(F)C(F)(F)C(F)(F)C(F)(F)C(F)(F)F` [Perfluorooctanoic_acid], for which the POD vs vehicle is over 100 µM.
The compound `O=C(O)C(F)(F)C(F)(F)C(F)(F)C(F)(F)F` [Perfluoropentanoic_acid] gave a POD vs vehicle of over 100 µM.
`O=C(O)C(F)(F)C(F)(F)F` [Perfluoropropanoic_acid] came in with a POD vs vehicle of over 100 µM.
In the case of `O=C(O)C(F)(F)C(F)(F)C(F)(F)C(F)(F)C(F)(F)C(F)(F)C(F)(F)C(F)(F)C(F)(F)C(F)(F)F` [Perfluoroundecanoic_acid], the POD vs vehicle is over 100 µM.
In turn, `O=S(=O)([O-])C(F)(F)C(F)(F)C(F)(F)C(F)(F)F.[K+]` [Potassium_perfluorobutanesulfonate] had a POD vs vehicle of over 100 µM.

The test system of the next experiment is 20032 (donor line of iPSC-derived cardiomyocytes). The experiment is described as above. To be noted: exposure time: 90 min. The procedure:
as §1
Compound `O=C(O)C(F)(F)C(F)(F)C(F)(F)F` [Perfluorobutanoic_acid] gave a POD vs vehicle of over 100 µM.
`O=C(O)C(F)(F)C(F)(F)C(F)(F)C(F)(F)C(F)(F)C(F)(F)C(F)(F)C(F)(F)C(F)(F)F` [Perfluorodecanoic_acid]: the POD vs vehicle was over 100 µM.
For `O=C(O)C(F)(F)C(F)(F)C(F)(F)C(F)(F)C(F)(F)C(F)(F)F` [Perfluoroheptanoic_acid], the POD vs vehicle is over 100 µM.
With `NS(=O)(=O)C(F)(F)C(F)(F)C(F)(F)C(F)(F)C(F)(F)C(F)(F)F` [Perfluorohexanesulfonamide], the POD vs vehicle came out at 96 µM.
The compound `O=S(=O)(O)C(F)(F)C(F)(F)C(F)(F)C(F)(F)C(F)(F)C(F)(F)F` [Perfluorohexanesulfonic_acid] gave a POD vs vehicle of over 100 µM.
`O=C(O)C(F)(F)C(F)(F)C(F)(F)C(F)(F)C(F)(F)F` [Perfluorohexanoic_acid] came in with a POD vs vehicle of over 100 µM.
Regarding `O=C(O)C(F)(F)C(F)(F)C(F)(F)C(F)(F)C(F)(F)C(F)(F)C(F)(F)C(F)(F)F` [Perfluorononanoic_acid], the POD vs vehicle is over 100 µM.
For `NC(=O)C(F)(F)C(F)(F)C(F)(F)C(F)(F)C(F)(F)C(F)(F)C(F)(F)F` [Perfluorooctanamide], the POD vs vehicle was over 100 µM.
In the case of `N=C(N)C(F)(F)C(F)(F)C(F)(F)C(F)(F)C(F)(F)C(F)(F)C(F)(F)F` [Perfluorooctanamidine], the POD vs vehicle was over 100 µM.
`O=S(=O)(O)C(F)(F)C(F)(F)C(F)(F)C(F)(F)C(F)(F)C(F)(F)C(F)(F)C(F)(F)F` [Perfluorooctanesulfonic_acid]: the POD vs vehicle was over 100 µM.
With `O=C(O)C(F)(F)C(F)(F)C(F)(F)C(F)(F)C(F)(F)C(F)(F)C(F)(F)F` [Perfluorooctanoic_acid], the POD vs vehicle is over 100 µM.
Still for that read-out and setting: the figure for `O=C(O)C(F)(F)C(F)(F)C(F)(F)C(F)(F)F` [Perfluoropentanoic_acid] is over 100 µM.
`O=C(O)C(F)(F)C(F)(F)F` [Perfluoropropanoic_acid]: the POD vs vehicle is over 100 µM.
The compound `O=C(O)C(F)(F)C(F)(F)C(F)(F)C(F)(F)C(F)(F)C(F)(F)C(F)(F)C(F)(F)C(F)(F)C(F)(F)F` [Perfluoroundecanoic_acid] displayed a POD vs vehicle of over 100 µM.
For the compound `O=S(=O)([O-])C(F)(F)C(F)(F)C(F)(F)C(F)(F)F.[K+]` [Potassium_perfluorobutanesulfonate], the POD vs vehicle was over 100 µM.

For the next experiment, the system named is 1535 (donor line of iPSC-derived cardiomyocytes). Described as above. Conditions: exposure time: 90 min. On the procedure: as §1
Take `O=C(O)C(F)(F)C(F)(F)C(F)(F)F` [Perfluorobutanoic_acid]: the POD vs vehicle is over 100 µM.
Same read-out and setting: next, `O=C(O)C(F)(F)C(F)(F)C(F)(F)C(F)(F)C(F)(F)C(F)(F)C(F)(F)C(F)(F)C(F)(F)F` [Perfluorodecanoic_acid]: over 100 µM.
With `O=C(O)C(F)(F)C(F)(F)C(F)(F)C(F)(F)C(F)(F)C(F)(F)F` [Perfluoroheptanoic_acid], the POD vs vehicle was over 100 µM.
As to `NS(=O)(=O)C(F)(F)C(F)(F)C(F)(F)C(F)(F)C(F)(F)C(F)(F)F` [Perfluorohexanesulfonamide], the POD vs vehicle amounted to 71.2 µM.
`O=S(=O)(O)C(F)(F)C(F)(F)C(F)(F)C(F)(F)C(F)(F)C(F)(F)F` [Perfluorohexanesulfonic_acid] registered a POD vs vehicle of over 100 µM.
Same read-out and setting: the figure for `O=C(O)C(F)(F)C(F)(F)C(F)(F)C(F)(F)C(F)(F)F` [Perfluorohexanoic_acid] is over 100 µM.
On the same count and under the same terms, next, `O=C(O)C(F)(F)C(F)(F)C(F)(F)C(F)(F)C(F)(F)C(F)(F)C(F)(F)C(F)(F)F` [Perfluorononanoic_acid]: over 100 µM; `NC(=O)C(F)(F)C(F)(F)C(F)(F)C(F)(F)C(F)(F)C(F)(F)C(F)(F)F` [Perfluorooctanamide]: over 100 µM; `N=C(N)C(F)(F)C(F)(F)C(F)(F)C(F)(F)C(F)(F)C(F)(F)C(F)(F)F` [Perfluorooctanamidine]: over 100 µM.
For the compound `O=S(=O)(O)C(F)(F)C(F)(F)C(F)(F)C(F)(F)C(F)(F)C(F)(F)C(F)(F)C(F)(F)F` [Perfluorooctanesulfonic_acid], the POD vs vehicle was over 100 µM.
As for `O=C(O)C(F)(F)C(F)(F)C(F)(F)C(F)(F)C(F)(F)C(F)(F)C(F)(F)F` [Perfluorooctanoic_acid], the POD vs vehicle was over 100 µM.
In turn, `O=C(O)C(F)(F)C(F)(F)C(F)(F)C(F)(F)F` [Perfluoropentanoic_acid] returned a POD vs vehicle of over 100 µM.
`O=C(O)C(F)(F)C(F)(F)F` [Perfluoropropanoic_acid]: the POD vs vehicle was over 100 µM.
For `O=C(O)C(F)(F)C(F)(F)C(F)(F)C(F)(F)C(F)(F)C(F)(F)C(F)(F)C(F)(F)C(F)(F)C(F)(F)F` [Perfluoroundecanoic_acid], the POD vs vehicle is over 100 µM.
The compound `O=S(=O)([O-])C(F)(F)C(F)(F)C(F)(F)C(F)(F)F.[K+]` [Potassium_perfluorobutanesulfonate] displayed a POD vs vehicle of over 100 µM.
